Data: patent publication US7612065B2, “Inhibitors of c-JUN N-terminal kinases (JNK)” (priority 2007, dated 2009)
pKi: −log10 of the molar value.

These molecules were tested against T1, JNK3 (Homo sapiens, UniProt P53779) (assay: JNK inhibition assay: spectrophotometric coupled-enzyme assay with activated JNK3). Settings: activated JNK3 10 nM, 10 μM ATP, 200 μM EGF receptor peptide, 30° C., competitive inhibition model.
T1 construct: One such construct encodes amino acid residues Ser40-Glu402 of JNK3α1 and is preceded by Met and Gly residues; Met-Gly (initiation methionine plus glycine added for the NcoI site); made in house; host or cells: E. coli BL21 (DE3)
Assay type: biochemical
Text: A BLAST search of the EST database using the published JNK3α1 cDNA as a query identified an EST clone (#632588) that contained the entire coding sequence for human JNK3α1. Polymerase chain reactions (PCR) using pfu polymerase (Strategene) were used to introduce restriction sites into the cDNA for cloning into the pET-15B expression vector at the NcoI and BamHI sites. The protein was expressed in E. coli. […] This truncation corresponds to Ser 2 of JNK1 and JNK2 proteins, and is preceded by a methionine (initiation) and a glycine residue. The glycine residue was added in order to introduce an NcoI site for cloning into the expression vector. In addition, systematic C-terminal truncations were performed by PCR to identify a construct that give rise to diffraction-quality crystals.
5 mg of JNK3 was diluted to 0.5 mg/ml in 50 mM HEPES buffer, pH 7.5, containing 100 mM NaCl, 5 mM DTT, 20 mM MgCl2 and 1 mM ATP. GST-MKK7(DD) was added at a molar ratio of 1:2.5 GST-MKK7:JNK3. After incubation for 30 minutes at 25° C., the reaction mixture was concentrated 5-fold by ultrafiltration in a Centriprep-30 (Amicon, Beverly, Mass.), diluted to 10 ml and an additional 1 mM ATP added. This procedure was repeated three times to remove ADP and replenish ATP. The final addition of ATP was 5 mM and the mixture incubated overnight at 4° C.
The activated JNK3/GST-MKK7(DD) reaction mixture was exchanged into 50 mM HEPES buffer, pH 7.5, containing 5 mM DTT and 5% glycerol (w/v) by dialysis or ultrafiltration. The reaction mixture was adjusted to 1.1 M potassium phosphate, pH 7.5, and purified by hydrophobic interaction chromatography (at 25° C.) using a Rainin Hydropore column. […] Activated JNK3 (i.e. doubly phosphorylated JNK3) was stored at −70° C. at 0.25-1 mg/ml.
Compounds were assayed for the inhibition of JNK3 by a spectrophotometric coupled-enzyme assay. In this assay, a fixed concentration of activated JNK3 (10 nM) was incubated with various concentrations of a potential inhibitor dissolved in DMSO for 10 minutes at 30° C. in a buffer containing 0.1 M HEPES buffer, pH 7.5, containing 10 mM MgCl2, 2.5 mM phosphoenolpyruvate, 200 μM NADH, 150 μg/mL pyruvate kinase, 50 μg/mL lactate dehydrogenase, and 200 μM EGF receptor peptide. […] The reaction was initiated by the addition of 10 μM ATP and the assay plate is inserted into the spectrophotometer's assay plate compartment that was maintained at 30° C. The decrease of absorbance at 340 nm was monitored as a function of time. The rate data as a function of inhibitor concentration was fitted to competitive inhibition kinetic model to determine the Ki.

T1 sequence (P53779 40-402): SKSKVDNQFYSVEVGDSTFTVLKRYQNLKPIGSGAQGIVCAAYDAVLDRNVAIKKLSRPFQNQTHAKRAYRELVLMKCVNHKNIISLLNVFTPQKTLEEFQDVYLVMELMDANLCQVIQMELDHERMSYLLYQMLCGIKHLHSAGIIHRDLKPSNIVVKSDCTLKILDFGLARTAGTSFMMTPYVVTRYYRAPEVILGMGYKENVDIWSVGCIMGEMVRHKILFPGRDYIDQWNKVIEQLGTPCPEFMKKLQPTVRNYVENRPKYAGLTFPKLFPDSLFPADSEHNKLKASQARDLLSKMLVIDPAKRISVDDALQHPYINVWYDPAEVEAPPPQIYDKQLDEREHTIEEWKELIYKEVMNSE

| SMILES | pKi |
| --- | --- |
| COc1ccc(CN2C(=O)/C(=N\O)c3cc(F)ccc32)cc1 [Compound 78] | ≤ 6.00 |
| Cc1cccc(CN2C(=O)/C(=N\O)c3cc([N+](=O)[O-])ccc32)c1 [Compound 34] | ≤ 6.00 |
| CCCNC(=O)c1ccc2c(c1)N(Cc1cc(F)cc3c1OCOC3)C(=O)/C2=N\O [Compound 293] | ≤ 6.00 |
| COC(=O)c1cccc2c1/C(=N/O)C(=O)N2Cc1cc(F)cc2c1OCOC2 [Compound 244] | ≤ 6.00 |
| O=C(O)c1cccc2c1/C(=N/O)C(=O)N2Cc1cc(F)cc2c1OCOC2 [Compound 245] | ≤ 6.00 |
| O=C1c2ccccc2C(=O)N1CCCN1C(=O)/C(=N/O)c2ccc(CBr)cc21 [Compound 187] | ≤ 6.00 |
| Cc1cc(Cl)cc2c1N(Cc1cccc(Oc3ccccc3)c1)C(=O)/C2=N\O [Compound 100] | ≤ 6.00 |
| O=C1/C(=N\O)c2ccccc2N1Cc1ncc(C(F)(F)F)cc1Cl [Compound 70] | ≤ 6.00 |
| CS(=O)(=O)Nc1ccc2c(c1)N(Cc1cc(F)cc3c1OCOC3)C(=O)/C2=N\O [Compound 262] | > 6.00 |
| O=C1/C(=N\O)c2c(-c3ccccc3)cccc2N1Cc1cc(F)cc2c1OCOC2 [Compound 202] | ≤ 6.00 |
| O=C1/C(=N\O)c2cc(Cl)ccc2N1Cc1cccc(F)c1 [Compound 50] | ≤ 6.00 |
| O=C1/C(=N\O)c2cc(Cl)ccc2N1Cc1ccccc1F [Compound 51] | ≤ 6.00 |
| O=C(NCCN1CCCC1)c1ccc2c(c1)N(Cc1cc(F)cc3c1OCOC3)C(=O)/C2=N\O [Compound 289] | ≤ 6.00 |
| O=C(NCc1ccncc1)c1ccc2c(c1)N(Cc1cc(F)cc3c1OCOC3)C(=O)/C2=N\O [Compound 238] | ≤ 6.00 |
| CC(C)CN1C(=O)/C(=N\O)c2cc(Br)ccc21 [Compound 159] | ≤ 6.00 |
| Cc1ccc(CN2C(=O)/C(=N\O)c3cc(Cl)ccc32)cc1 [Compound 48] | ≤ 6.00 |
| Cc1cc(F)ccc1C(=O)c1ccc2c(c1)/C(=N/O)C(=O)N2Cc1cc(F)cc2c1OCOC2 [Compound 319] | > 6.00 |
| COc1cccc(-c2ccc3c(c2)N(Cc2cc(=O)oc4cc(OC)ccc24)C(=O)/C3=N\O)c1 [Compound 175] | ≤ 6.00 |
| O=C(c1ccc2c(c1)N(Cc1cc(F)cc3c1OCOC3)C(=O)/C2=N\O)N1CCOCC1 [Compound 228] | ≤ 6.00 |
| COc1ccc(S(=O)(=O)Nc2ccc3c(c2)N(Cc2cc(F)cc4c2OCOC4)C(=O)/C3=N\O)cc1 [Compound 265] | ≤ 6.00 |
| COC(=O)CCCN1C(=O)/C(=N/O)c2ccc(-c3ccsc3)cc21 [Compound 186] | ≤ 6.00 |
| Cc1cc(C)c2c(c1)/C(=N/O)C(=O)N2Cc1cccc(Oc2ccccc2)c1 [Compound 92] | ≤ 6.00 |

| SMILES | pKi |
| --- | --- |
| Cc1cccc(CN2C(=O)/C(=N\O)c3cc(F)ccc32)c1 [Compound 57] | ≤ 6.00 |
| O=C(Nc1ccc2c(c1)N(Cc1cc(F)cc3c1OCOC3)C(=O)/C2=N\O)c1ccc([N+](=O)[O-])cc1 [Compound 260] | > 6.00 |
| COc1ccc(CC(=O)Nc2ccc3c(c2)N(Cc2cc(F)cc4c2OCOC4)C(=O)/C3=N/O)cc1OC [Compound 324] | ≤ 6.00 |
| O=C1/C(=N\O)c2cc(NCc3ccc(O)cc3)ccc2N1Cc1cc(F)cc2c1OCOC2 [Compound 304] | ≤ 6.00 |
| O=C1/C(=N\O)c2ccc(NS(=O)(=O)c3ccc(Cl)cc3)cc2N1Cc1cc(F)cc2c1OCOC2 [Compound 213] | ≤ 6.00 |
| Cc1cc(C)c2c(c1)/C(=N/O)C(=O)N2Cc1cccc([N+](=O)[O-])c1 [Compound 88] | ≤ 6.00 |
| Cc1cc(Cl)cc2c1N(Cc1ccccc1C#N)C(=O)/C2=N\O [Compound 99] | ≤ 6.00 |
| CCC(C(=O)Nc1ccc2c(c1)N(Cc1cc(F)cc3c1OCOC3)C(=O)/C2=N/O)c1ccccc1 (centres unmarked) [Compound 323] | > 6.00 |
| O=C1/C(=N\O)c2cc(N(CCCc3ccccc3)CCCc3ccccc3)ccc2N1Cc1cc(F)cc2c1OCOC2 [Compound 312] | ≤ 6.00 |
| Cc1ccc2c(c1)/C(=N/O)C(=O)N2Cc1cccc(C(F)(F)F)c1 [Compound 1] | ≤ 6.00 |
| O=C1/C(=N\O)c2cc(Br)ccc2N1Cc1ccc([N+](=O)[O-])cc1 [Compound 25] | ≤ 6.00 |
| CS(=O)(=O)c1ccc(CN2C(=O)/C(=N\O)c3cc(F)ccc32)cc1 [Compound 83] | ≤ 6.00 |
| O=C(Nc1ccc2c(c1)N(Cc1cc(F)cc3c1OCOC3)C(=O)/C2=N\O)C1CCCC1 [Compound 225] | > 6.00 |
| Cc1cc(Cl)cc2c1N(Cc1ccc(S(C)(=O)=O)cc1)C(=O)/C2=N\O [Compound 101] | ≤ 6.00 |
| Nc1cccc2c1/C(=N/O)C(=O)N2Cc1cc(F)cc2c1OCOC2 [Compound 282] | ≤ 6.00 |
| O=Cc1ccccc1-c1ccc2c(c1)N(Cc1cc(F)cc3c1OCOC3)C(=O)/C2=N\O [Compound 315] | > 6.00 |
| COc1ccccc1-c1nc(CN2C(=O)/C(=N\O)c3cc(C)cc(C)c32)no1 [Compound 90] | ≤ 6.00 |
| CC(=O)c1ccc(-c2ccc3c(c2)N(Cc2cc(F)cc4c2OCOC4)C(=O)/C3=N\O)cc1 [Compound 330] | > 6.00 |
| Cc1ccc(CN2C(=O)/C(=N\O)c3ccccc32)cc1 [Compound 8] | ≤ 6.00 |
| Nc1cccc(-c2ccc3c(c2)/C(=N/O)C(=O)N3Cc2cc(F)cc3c2OCOC3)c1 [Compound 280] | ≤ 6.00 |
| Cc1ccc(C(=O)c2ccc3c(c2)/C(=N/O)C(=O)N3Cc2cc(F)cc3c2OCOC3)cc1 [Compound 349] | ≤ 6.00 |
| Nc1ccc2c(c1)/C(=N/O)C(=O)N2Cc1cc(F)cc2c1OCOC2 [Compound 285] | ≤ 6.00 |

| SMILES | pKi |
| --- | --- |
| CC(C)(C)NC(=O)c1ccc2c(c1)N(Cc1cc(F)cc3c1OCOC3)C(=O)/C2=N\O [Compound 241] | ≤ 6.00 |
| O=C1/C(=N\O)c2cc(Br)ccc2N1Cc1cccc(F)c1 [Compound 28] | ≤ 6.00 |
| COc1ccc(CNc2ccc3c(c2)/C(=N/O)C(=O)N3Cc2cc(F)cc3c2OCOC3)cc1O [Compound 305] | ≤ 6.00 |
| CC(=O)NCC(=O)Nc1ccc2c(c1)N(Cc1cc(F)cc3c1OCOC3)C(=O)/C2=N\O [Compound 348] | ≤ 6.00 |
| COc1cc(CN2C(=O)/C(=N\O)c3cc(OC(F)(F)F)ccc32)cc(OC)c1 [Compound 107] | ≤ 6.00 |
| COc1cc(CN2C(=O)/C(=N\O)c3c(-c4ccccc4)cccc32)cc(OC)c1 [Compound 200] | ≤ 6.00 |
| Cc1cccc2c1/C(=N/O)C(=O)N2Cc1cc(F)cc2c1OCOC2 [Compound 301] | > 6.00 |
| Cc1ccc(CN2C(=O)/C(=N\O)c3cc(F)ccc32)cc1 [Compound 56] | ≤ 6.00 |
| C[Si](C)(C)C#Cc1cccc2c1/C(=N/O)C(=O)N2Cc1cc(F)cc2c1OCOC2 [Compound 299] | ≤ 6.00 |
| CC(C)C(=O)Nc1ccc2c(c1)N(Cc1cc(F)cc3c1OCOC3)C(=O)/C2=N\O [Compound 261] | > 6.00 |
| COc1ccc(-c2ccc3c(c2)N(Cc2cc(F)cc4c2OCOC4)C(=O)/C3=N\O)cc1 [Compound 329] | ≤ 6.00 |
| CC(C)c1ccc(-c2ccc3c(c2)N(Cc2cc(F)cc4c2OCOC4)C(=O)/C3=N\O)cc1 [Compound 334] | ≤ 6.00 |
| C/C=C/c1cccc2c1/C(=N/O)C(=O)N2Cc1cc(F)cc2c1OCOC2 [Compound 326] | > 6.00 |
| CC(=O)Nc1cccc(-c2ccc3c(c2)/C(=N/O)C(=O)N3Cc2cc(F)cc3c2OCOC3)c1 [Compound 279] | ≤ 6.00 |
| O=C1/C(=N\O)c2cc(Cl)ccc2N1Cc1ccccn1 [Compound 76] | ≤ 6.00 |
| COc1cc(CN2C(=O)/C(=N\O)c3ccc(OC)cc32)cc(OC)c1 [Compound 155] | > 6.00 |
| O=C1/C(=N\O)c2cc(F)ccc2N1Cc1cc(F)cc2c1OCOC2 [Compound 85] | > 6.00 |
| O=C(NCc1cc(Cl)ccc1Cl)c1ccc2c(c1)N(Cc1cc(F)cc3c1OCOC3)C(=O)/C2=N\O [Compound 236] | ≤ 6.00 |
| Cc1cc(C)c2c(c1)/C(=N/O)C(=O)N2Cc1csc(-c2ccc(Cl)cc2)n1 [Compound 96] | ≤ 6.00 |
| CCS(=O)(=O)Nc1ccc2c(c1)N(Cc1cc(F)cc3c1OCOC3)C(=O)/C2=N\O [Compound 263] | > 6.00 |
| COc1ccc(-c2nc(CN3C(=O)/C(=N\O)c4cc(F)ccc43)no2)cc1 [Compound 109] | ≤ 6.00 |
